From ChEMBL document CHEMBL1932926, “New substituted C-19-andrographolide analogues with potent cytotoxic activities” (2012)

Assays:
Format in all cases: functional
Details in all cases: read-out: ED50 (the source's name)
[1] = Cytotoxicity against rat ASK cells by SRB assay
KB = experiment: Cytotoxicity against human KB cells by SRB assay
P388 = experiment: Cytotoxicity against mouse P388 cells by SRB assay
Col2 = experiment: Cytotoxicity against human Col2 cells by SRB assay
Lu1 = experiment: Cytotoxicity against human Lu1 cells by SRB assay
MCF7 = experiment: Cytotoxicity against human MCF7 cells by SRB assay

Compound	EC50 [1]	EC50 (KB)	EC50 (P388)	EC50 (Col2)	EC50 (Lu1)	EC50 (MCF7)
C=C1CC[C@@H]2[C@](C)(CO[Si](C)(C)C(C)(C)C)[C@H](O)CC[C@@]2(C)[C@@H]1C/C=C1/C(=O)OC[C@H]1O	15.5 µM	40.7 µM	8.39 µM	17.1 µM	48.8 µM	47 µM
C=C1CC[C@@H]2[C@](C)(CO[Si](C)(C)C(C)(C)C)[C@H](OC(C)=O)CC[C@@]2(C)[C@@H]1C/C=C1/C(=O)OC[C@H]1O	8.17 µM	11.2 µM	1.71 µM	11.3 µM	9.62 µM	9.79 µM
C=C1CC[C@@H]2[C@](C)(CO[Si](C)(C)C(C)(C)C)[C@H](O)CC[C@@]2(C)[C@@H]1C/C=C1/C(=O)OC[C@H]1OC(C)=O	3.41 µM	10.7 µM	1.03 µM	8.94 µM	10.4 µM	10.4 µM
C=C1CC[C@@H]2[C@](C)(CO[Si](C)(C)C(C)(C)C)[C@H](OC(C)=O)CC[C@@]2(C)[C@@H]1C/C=C1/C(=O)OC[C@H]1OC(C)=O	1.22 µM	3.62 µM	0.34 µM	2.23 µM	2.92 µM	2.84 µM
C=C1CC[C@@H]2[C@](C)(CO[Si](C(C)C)(C(C)C)C(C)C)[C@H](O)CC[C@@]2(C)[C@@H]1C/C=C1/C(=O)OC[C@H]1O	2.85 µM	2.73 µM	0.88 µM	2.73 µM	3.01 µM	2.88 µM
C=C1CC[C@@H]2[C@](C)(CO[Si](C(C)C)(C(C)C)C(C)C)[C@H](OC(C)=O)CC[C@@]2(C)[C@@H]1C/C=C1/C(=O)OC[C@H]1OC(C)=O	7.56 µM	7.39 µM	1.41 µM	13.6 µM	18.8 µM	14 µM
C=C1CC[C@@H]2[C@](C)(CO[Si](c3ccccc3)(c3ccccc3)C(C)(C)C)[C@H](O)CC[C@@]2(C)[C@@H]1C/C=C1/C(=O)OC[C@H]1O	5.54 µM	11.1 µM	0.68 µM	9.65 µM	11.5 µM	8.15 µM
C=C1CC[C@@H]2[C@](C)(CO[Si](c3ccccc3)(c3ccccc3)C(C)(C)C)[C@H](OC(C)=O)CC[C@@]2(C)[C@@H]1C/C=C1/C(=O)OC[C@H]1O	10.5 µM	9.86 µM	0.5 µM	3.8 µM	10.9 µM	7.53 µM
C=C1CC[C@@H]2[C@](C)(CO[Si](c3ccccc3)(c3ccccc3)C(C)(C)C)[C@H](O)CC[C@@]2(C)[C@@H]1C/C=C1/C(=O)OC[C@H]1OC(C)=O	12 µM	10.5 µM	0.33 µM	10.7 µM	11.9 µM	9.63 µM
C=C1CC[C@@H]2[C@](C)(CO[Si](c3ccccc3)(c3ccccc3)C(C)(C)C)[C@H](OC(C)=O)CC[C@@]2(C)[C@@H]1C/C=C1/C(=O)OC[C@H]1OC(C)=O	32.8 µM	29 µM	1.67 µM	12.3 µM	52.9 µM	45.7 µM
C=C1CC[C@@H]2[C@](C)(CO)[C@H](OC(C)=O)CC[C@@]2(C)[C@@H]1C/C=C1/C(=O)OC[C@H]1O	58.1 µM	35.6 µM	4.78 µM	27.2 µM	30.6 µM	26.4 µM
C=C1CC[C@@H]2[C@](C)(COC(C)=O)[C@H](O)CC[C@@]2(C)[C@@H]1C/C=C1/C(=O)OC[C@H]1O	16.7 µM	15.3 µM	2.04 µM	12.9 µM	14 µM	18.2 µM
C=C1CC[C@@H]2[C@](C)(COC(C)=O)[C@H](OC(C)=O)CC[C@@]2(C)[C@@H]1C/C=C1/C(=O)OC[C@H]1O	22.4 µM	35.2 µM	2.65 µM	15.3 µM	34.7 µM	19.7 µM
C=C1CC[C@@H]2[C@](C)(COC(C)=O)[C@H](O)CC[C@@]2(C)[C@@H]1C/C=C1/C(=O)OC[C@H]1OC(C)=O	16.3 µM	26.4 µM	1.62 µM	15.2 µM	19.8 µM	18.5 µM
C=C1CC[C@@H]2[C@](C)(COC(C)=O)[C@H](OC(C)=O)CC[C@@]2(C)[C@@H]1C/C=C1/C(=O)OC[C@H]1OC(C)=O	11.4 µM	11.6 µM	1.4 µM	10.8 µM	12.4 µM	10 µM
C=C1CC[C@@H]2[C@](C)(CO)[C@H](OC(C)=O)CC[C@@]2(C)[C@@H]1C/C=C1/C(=O)OC[C@H]1OC(C)=O	11.5 µM	11.7 µM	0.69 µM	10.2 µM	8.75 µM	11 µM
C=C1CC[C@@H]2[C@](C)(COC(c3ccccc3)(c3ccccc3)c3ccccc3)[C@H](O)CC[C@@]2(C)[C@@H]1C/C=C1/C(=O)OC[C@H]1O	2.86 µM	2.42 µM	0.45 µM	2.73 µM	0.88 µM	2.72 µM
C=C1CC[C@@H]2[C@](C)(COC(c3ccccc3)(c3ccccc3)c3ccccc3)[C@H](OC(C)=O)CC[C@@]2(C)[C@@H]1C/C=C1/C(=O)OC[C@H]1OC(C)=O	15.3 µM	9.77 µM	1.92 µM	22.8 µM	8.37 µM	22.7 µM
C=C1CC[C@@H]2[C@]3(C)COC(C)(C)O[C@@H]3CC[C@@]2(C)[C@@H]1C/C=C1/C(=O)OC[C@H]1O	52.2 µM	66.5 µM	3.78 µM	39.8 µM	53 µM	42.8 µM
C=C1CC[C@@H]2[C@](C)(CO)[C@H](O)CC[C@@]2(C)[C@@H]1C/C=C1/C(=O)OC[C@H]1O [ANDROGRAPHOLIDE]	16.2 µM	27.4 µM	2.25 µM	13.6 µM	13 µM	15.4 µM
Cc1c2ccncc2c(C)c2c1[nH]c1ccccc12 [ELLIPTECINE]	3.56 µM	2.46 µM	2.44 µM	2.72 µM	1.62 µM	2.71 µM
